Data reported in ChEMBL document CHEMBL1156829 (Proc Natl Acad Sci U S A, 2008).

What was measured:
[1] = system: Plasmodium falciparum; experiment: NOVARTIS: Inhibition of Plasmodium falciparum 3D7 (drug-susceptible) proliferation in erythrocyte-based infection assay; format: functional, organism-based; conditions: Plasmodium falciparum, 3D7
[2] = system: Plasmodium falciparum; experiment: NOVARTIS: Inhibition of Plasmodium falciparum W2 (drug-resistant) proliferation in erythrocyte-based infection assay; format: functional, organism-based; conditions: Plasmodium falciparum, W2; read-out: EC50
[3] = NOVARTIS: Cytotoxicity against human hepatocellular carcinoma cell line (Huh7); format: toxicity, cell-based, Huh-7; conditions: Huh7 cells (hepatocellular carcinoma cell line)

Structure (SMILES)	EC50 [1] [nM]	EC50 [2] [nM]	CC50 [3] [nM]
CCOC(=O)c1c(NC(=O)C(C)Sc2nnc(CNC(=O)c3ccco3)n2-c2cccc(C(F)(F)F)c2)sc2c1CCC2 (stereo not drawn)	> 12500	649	> 100000
CCOC(=O)C1CCN(C(=O)CN2C(=O)c3ccccc3C2c2c[nH]c3ccccc23)CC1 (stereo not drawn)	519	513	> 100000
COc1ccc(N2C(=O)/C(=C3/C(=O)Nc4ccc(F)cc43)SC2=S)c(OC)c1	> 926	947	> 10000
COCCCNC(=O)CSCc1nc(-c2ccccc2F)oc1C	> 467	> 1740	> 10000
CCCc1cc(O)c2c3c(c(=O)oc2c1)CN(C)CC3	554	294	> 100000
COc1ccc(NC(=O)CCCCCn2c(SCC(=O)NCCc3ccc(OC)c(OC)c3)nc3ccsc3c2=O)cc1	> 5310	837	> 100000
COc1ccc(N2CCN(C(CNC(=O)CC(C)C)c3ccco3)CC2)cc1 (stereo not drawn)	6690	767	> 100000
O=C(/C=C/c1ccccc1Cl)Nc1ccc(Oc2ccc3ccccc3c2Cl)c(Cl)c1	> 958	> 1250	> 10000
CCCC(=O)NC(c1ccc(Cl)cc1)c1ccc2cccnc2c1O (stereo not drawn)	288	170	10300
CCCCCCN(C(=O)CCc1ccccc1)C(CC)c1nc2ccccc2c(=O)n1-c1ccc(Cl)cc1 (stereo not drawn)	1160	26.7	> 10000
Nc1ccc2nc3ccc(N)cc3[s+]c2c1	85.7	143	11600
CCCCCN(C(=O)CCc1ccccc1)C(CC)c1nc2ccccc2c(=O)n1-c1ccc(Cl)cc1C (stereo not drawn)	> 1000	1740	> 305
COC(=O)[C@@H]1C[C@@H](NC(=O)c2ccc(C)cc2)CN1Cc1ccc(OC)c(C)c1OC	565	137	> 10000
N#Cc1nc(C(=O)N2CCOCC2)oc1N1CCOCC1	995	> 1250	> 10000
NC(=O)/C(=C\c1cccc2ccccc12)NC(=O)c1ccccc1	> 1140	> 1250	> 10000
CCC(CC)C(=O)Nc1c2c(nn1-c1cccc(Cl)c1)C[S+]([O-])C2 (stereo not drawn)	11900	1300	> 100000
C=CC1CN2CCC1CC2[C@@H](OC(=O)/C=C/c1ccc(Cl)cc1)c1ccnc2ccc(OC)cc12 (stereo partly drawn)	272	252	> 10000
CCOC(=O)c1nnn(-c2nonc2N)c1-c1ccc(OC)c(OC)c1	513	450	> 100000
CCCC(CCC)C(=O)Nc1ccc2c(c1)N(C(=O)CCCl)c1ccccc1CC2	416	2580	> 100000
CCCCOc1ccc(C(=O)Nc2cc(C)on2)cc1	3160	510	> 100000
CCN1/C(=C/c2sc3cc(OC)c(OC)cc3[n+]2CC)C=Cc2ccccc21	136	104	> 10000
N#Cc1ccccc1Cn1ccc(=NCc2ccccc2)cc1	1060	> 465	> 10000

Structure (SMILES)	EC50 [1] [nM]	EC50 [2] [nM]	CC50 [3] [nM]
COc1cc(C(c2c(C)n(C)n(-c3ccccc3)c2=O)c2c(C)n(C)n(-c3ccccc3)c2=O)cc(Cl)c1OCc1ccccc1	2700	456	38300
COCCNC(=O)c1ccc(NCCc2ccc(Cl)cc2)c(S(=O)(=O)Nc2cccc(C(F)(F)F)c2)c1	7340	6520	> 100000
COc1cccc(NC(=O)c2ccc(NCCCN3CC(C)CC(C)C3)c([N+](=O)[O-])c2)c1 (stereo not drawn)	275	509	> 100000
O=C(NC1CC1)c1ccc(OC2CCN(CC3CCCCC3)CC2)c(Cl)c1	119	50.3	22600
COc1ccc(C(=O)C(C)[n+]2ccccc2-c2ccccn2)cc1 (stereo not drawn)	602	> 751	> 12100
C=CC1CN2CCC1CC2[C@@H](OC(=O)c1ccc(C(C)(C)C)cc1)c1ccnc2ccc(OC)cc12 (stereo partly drawn)	26	103	72400
CCCC[C@@H](C)[C@@H](O)[C@H]1C(=O)N[C@@H](C(C)C)C(=O)N(C)[C@H](SC)C(=O)N(C)[C@@H](CC(C)C)C(=O)N[C@@H](C(C)C)C(=O)N(C)[C@@H](CC(C)C)C(=O)N[C@@H](C)C(=O)N[C@H](C)C(=O)N(C)[C@@H](CC(C)C)C(=O)N(C)[C@@H](CC(C)C)C(=O)N(C)[C@@H](C(C)C)C(=O)N1C	32.5	51.7	5180
CCOC(=O)c1sc(NC(=O)C(C)Sc2nnc(CNC(=O)c3ccc(OC)cc3)n2-c2ccccc2OC)c(C(=O)OCC)c1C (stereo not drawn)	> 1250	439	> 10000
OCCNc1nc(Nc2ccc(Cl)c(Cl)c2)nc2ccccc12	140	154	9400
O=C(Cc1cccs1)N1CCN(c2ccccn2)CC1	3950	1930	> 100000
Cc1noc(-c2ccc(O)cc2O)c1-c1ccc2c(c1)OCCO2	248	204	15200
O=C(NCCCCNc1ccnc2cc(Cl)ccc12)C(c1ccccc1)c1ccccc1	730	440	> 8210
O=c1c2sccc2nc(SCc2cccc([N+](=O)[O-])c2)n1-c1ccc(Br)cc1	3310	1020	> 100000
O=C1CN=C(c2ccccc2Cl)c2cc(Cl)ccc2N1Cc1cccc([N+](=O)[O-])c1	> 4470	> 4670	> 100000
CCOC(=O)C[n+]1cc(CC)sc1N	> 1070	> 1250	> 10000
C=CCNC(=O)CSc1ccc(C(=O)Nc2ccc(Cl)cc2F)cc1[N+](=O)[O-]	> 1170	> 1630	> 10000
COc1cc(OC)cc(C(=O)NCc2n[nH]c(=S)n2-c2cccc(C(F)(F)F)c2)c1	258	261	> 100000
COC(=O)CNC(c1ccccc1)c1cc(Br)ccc1NC(=O)C(Cc1ccccc1)NC(=O)OCc1ccccc1 (stereo not drawn)	4080	1280	> 100000
CSc1nc2nc(C)c(Cc3cccc(F)c3)c(C)n2n1	298	152	> 100000
CCc1ccccc1N1C(=O)CN(Cc2ccccc2)C1=S	> 12500	6000	78800
CCN(CC)c1ccc(C=NNC(=O)c2ccc(Nc3nc(-c4ccccc4)cs3)cc2)c(O)c1	151	54.8	20100
CCOc1ccc(-c2noc(-c3ccncc3)n2)cc1OCC	> 1250	> 847	> 10000

Structure (SMILES)	EC50 [1] [nM]	EC50 [2] [nM]	CC50 [3] [nM]
c1ccc(C2CC(C3CC(c4ccccc4)OC(c4ccccc4)C3)CC(c3ccccc3)O2)cc1 (stereo not drawn)	1240	394	> 10000
C#CC[N+]1(CC#Cc2cccc3ccccc23)CCCCC1	973	484	> 100000
CN(CCCNc1ccnc2cc(Cl)ccc12)C(=O)C1C[C@H]1c1ccccc1 (stereo partly drawn)	76.1	411	> 11600
CN(CCCNc1ccnc2cc(Cl)ccc12)C(=O)c1ccc(F)cc1	127	212	> 10000
COc1cc(/C=C(\C#N)c2nc3ccccc3[nH]2)ccc1OCc1ccc(Cl)cc1	321	558	> 10000
COc1ccc(N2CCN(c3ncnc4sc(C(=O)NCc5cccnc5)c(C)c34)CC2)cc1	> 11200	> 8110	20700
CCOC(=O)c1cnc2c(C)cccc2c1Nc1cccc(C(C)=O)c1	1020	607	> 100000
O=C(Oc1ccc(-c2ccc(OC(=O)c3ccco3)cc2)cc1)c1ccco1	> 738	973	> 10000
CCCCNCC(O)(c1ccc(Cl)cc1)c1ccc(Cl)cc1	720	99.7	38500
COc1ccc(NC(=O)CN2CCN(S(=O)(=O)c3cccc([N+](=O)[O-])c3)CC2)c(OC)c1	> 12500	1300	> 100000
COc1cc(NC(C)CCCN(Cc2ccc(N(C)C)cc2)C(=O)c2ccc(F)cc2)c2ncccc2c1 (stereo not drawn)	> 630	501	> 10000
CCCC(C)C(C(=O)Nc1c(C)cccc1C)N1C(=O)c2cc(NC(C)=O)ccc2NC(=O)[C@@H]1CCC(=O)O (stereo partly drawn)	1460	> 163	8510
COc1ccc(Nc2nc(Nc3ccc(OC)cc3)c3[nH]ccc3n2)cc1	667	678	> 10000
CCOc1ccccc1NC(=O)C1C(c2ccccc2)=C1c1ccccc1	1800	> 1250	> 10000
CCCCOc1ccc(NC2=C(N3CCCCC3)C(=O)c3ccccc3C2=O)cc1	9.86	17.2	15500
CCNC(=O)NCCSc1nc(-c2ccc(OC)cc2)c(-c2ccc(OC)cc2)n1CC	> 1660	> 812	> 10000
CNC(=O)c1nn(C)c2c1CC(NCC1CCCCC1)CC2 (stereo not drawn)	> 12500	2830	> 100000
CCOC(=O)c1c(CC)nc(-c2ccccc2)nc1C(=O)N1CCC(C)CC1	> 1250	< 13	4060
OCc1nc2ccccc2n1Cc1ccccc1F	> 1640	1450	> 10000
COc1ccc(Cn2c(-c3ccc(Cl)cc3)c[n+]3ccccc23)cc1	693	541	> 10000
CCNc1nc(OC)nc(Oc2ccc(=O)n(-c3ccccc3)n2)n1	548	584	> 100000
COC(=O)C1=C(C)NC2=C(C(=O)CC(c3ccc(OC)c(OC)c3)C2)C1c1ccccc1C (stereo not drawn)	125	31.7	> 100000
